Laboratory results taken from PubChem BioAssay (NCI).
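Cultured in 96-well plates, cells were exposed to test compound for 48 hours across five concentrations. TGI: total growth inhibition.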

Tests used:
Test in all cases: NCI tumour cell line growth inhibition, 48 h
SF-539 CNS = system: SF-539 CNS
RXF 393 renal = system: RXF 393 renal
K-562 leukemia = system: K-562 leukemia
CAKI-1 renal = system: CAKI-1 renal
HOP-62 NSCLC = system: HOP-62 NSCLC
TK-10 renal = system: TK-10 renal
OVCAR-4 ovarian = system: OVCAR-4 ovarian
SW-620 colon = system: SW-620 colon
MDA-MB-231 breast = system: MDA-MB-231 breast
UO-31 renal = system: UO-31 renal
MALME-3M melanoma = system: MALME-3M melanoma
NCI-H23 lung = system: NCI-H23 lung

Measured: TGI

CNC(=O)c1ccccc1-[s+]1c2ccccc2c(=O)n1C (centres undefined)
> 100 µM: all assays above

COc1cc(/C=C2/SC(c3ccccc3)N(c3ccc(NC(C)=O)cc3)C2=O)cc(OC)c1OC (centres undefined)
> 100 µM: all assays above
